US6737383B1, “Herbicidal oxadiazolidines” (priority 1999, dated 2004)

Legend:
giant foxtail = test: Test B pre/postemergence giant foxtail; assay type: in vivo, Setaria faberii
In short: (§1)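 Herbicidal effect was estimated by eye on a ten-point control scale after plants spent twelve to sixteen days in a greenhouse following soil or foliar treatment. Foliar sprays targeted plants at one to four leaves; all doses were formulated in a non-phytotoxic solvent with surfactant.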

velvetleaf = test: Test B pre/postemergence velvetleaf; assay type: in vivo, Abutilon theophrasti
In short: as §1

cocklebur = test: Test B pre/postemergence cocklebur; assay type: in vivo, Xanthium strumarium
In short: as §1

morningglory = test: Test B pre/postemergence morningglory; assay type: in vivo, Ipomoea hederacea
In short: as §1

purple nutsedge = test: Test B pre/postemergence purple nutsedge; assay type: in vivo, Cyperus rotundus
In short: as §1

rape = test: Test B pre/postemergence rape; assay type: in vivo, Brassica napus
In short: as §1

blackgrass = test: Test B pre/postemergence blackgrass; assay type: in vivo, Alopecurus myosuroides
In short: as §1

soybean = test: Test B pre/postemergence soybean; assay type: in vivo, Glycine max
In short: as §1

wheat = test: Test B pre/postemergence wheat; assay type: in vivo, Triticum aestivum
In short: as §1

corn = test: Test B pre/postemergence corn; assay type: in vivo, Zea mays
In short: as §1

surinam grass = test: Test B pre/postemergence surinam grass; assay type: in vivo, Brachiaria decumbens
In short: as §1

wild oat = test: Test B pre/postemergence wild oat; assay type: in vivo, Avena fatua
In short: as §1

smallflower flatsedge = test: Test B flood test smallflower flatsedge; assay type: in vivo, Cyperus difformis
In short: (§2)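 Flood test on plants grown to the 2-leaf stage; treated plants kept in greenhouse twelve to sixteen days, then visually rated against controls on a 0 (no effect) to 10 (complete control) scale.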

crabgrass = test: Test B pre/postemergence crabgrass; assay type: in vivo, Digitaria sanguinalis
In short: as §1

duck salad = test: Test B flood test duck salad; assay type: in vivo, Heteranthera limosa
In short: as §2

sugar beet = test: Test B pre/postemergence sugar beet; assay type: in vivo, Beta vulgaris
In short: as §1

[1] = Postemergence, Rate 125 g/ha, scale 0 to 10, 0 is no effect, 10 is complete control
[2] = Postemergence, Rate 250 g/ha, scale 0 to 10, 0 is no effect, 10 is complete control
[3] = Postemergence, Rate 500 g/ha, scale of 0 to 10 where 0 is no effect and 10 is complete control
[4] = Preemergence, Rate 62 g/ha, scale 0 to 10 (0 no effect, 10 complete control)
[5] = Preemergence, Rate 125 g/ha, scale of 0 to 10 where 0 is no effect and 10 is complete control
[6] = Preemergence, Rate 250 g/ha, scale of 0 to 10 where 0 is no effect and 10 is complete control
[7] = Preemergence, Rate 500 g/ha, scale of 0 to 10 where 0 is no effect and 10 is complete control
[8] = Rate 62 g/ha, Postemergence, scale of 0 to 10 where 0 is no effect and 10 is complete control
[9] = Rate 62 g/ha, flood test species, Pre-emergence, visual evaluation after twelve to sixteen days
[10] = Rate 125 g/ha, under heading Pre-emergence, flood test species, visual evaluation after twelve to sixteen days
[11] = Rate 250 g/ha, Pre-emergence, flood-test species, scale 0 to 10, 0 is no effect, 10 is complete control
[12] = Rate 500 g/ha, Pre-emergence, flood test species, scale 0 to 10 (0 no effect, 10 complete control)

In the case of `CC(C)N(C(=O)n1oc(=O)n(C(CF)CF)c1=O)c1ccc(F)cc1` [Compound 390], the “Plant response rating, Giant foxtail” value (giant foxtail; [1]) is reported as 9, the “Plant response rating, Giant foxtail” value (giant foxtail; [2]) is reported as 9 and the “Giant foxtail plant response rating” value (giant foxtail; [3]) is reported as 10. The “Plant response rating, Giant foxtail” value (giant foxtail; [4]) was 10, the “Plant response rating, Giant foxtail” value (giant foxtail; [5]) was 10 and the “Giant foxtail plant response rating” value (giant foxtail; [6]) was 10. For the same compound, the “Giant foxtail plant response rating” value (giant foxtail; [7]) was 10, the “Giant foxtail plant response rating” value (giant foxtail; [8]) was 9 and the “Plant response rating, Velvetleaf” value (velvetleaf; [2]) was 7. For the same compound, the “Velvetleaf plant response rating” value (velvetleaf; [3]) was 8, the “Plant response rating, Velvetleaf” value (velvetleaf; [4]) was 2 and the “Plant response rating, Velvetleaf” value (velvetleaf; [5]) was 4. For the same compound, the “Velvetleaf plant response rating” value (velvetleaf; [6]) was 6, the “Velvetleaf plant response rating” value (velvetleaf; [7]) was 7 and the “Velvetleaf plant response rating” value (velvetleaf; [8]) was 0. For the same compound, the “Plant response rating, Cocklebur” value (cocklebur; [1]) was 0, the “Plant response rating, Cocklebur” value (cocklebur; [2]) was 3 and the “Cocklebur plant response rating” value (cocklebur; [3]) was 7. The “Plant response rating, Cocklebur” value (cocklebur; [4]) was 0, the “Plant response rating, Cocklebur” value (cocklebur; [5]) was 0 and the “Cocklebur plant response rating” value (cocklebur; [6]) was 2. For the same compound, the “Cocklebur plant response rating” value (cocklebur; [8]) was 0, the “Plant response rating, Morningglory” value (morningglory; [2]) was 7 and the “Morningglory plant response rating” value (morningglory; [3]) was 9. The “Plant response rating, Morningglory” value (morningglory; [4]) was 0, the “Plant response rating, Morningglory” value (morningglory; [5]) was 3 and the “Morningglory plant response rating” value (morningglory; [6]) was 6. For the same compound, the “Morningglory plant response rating” value (morningglory; [7]) was 7, the “Morningglory plant response rating” value (morningglory; [8]) was 2 and the “Plant response rating, Nutsedge” value (purple nutsedge; [2]) was 3. For the same compound, the “Plant response rating, Nutsedge” value (purple nutsedge; [4]) was 0, the “Plant response rating, Nutsedge” value (purple nutsedge; [5]) was 0 and the “Nutsedge plant response rating” value (purple nutsedge; [6]) was 0. For the same compound, the “Nutsedge plant response rating” value (purple nutsedge; [7]) was 2, the “Nutsedge plant response rating” value (purple nutsedge; [8]) was 0 and the “Plant response rating, Rape” value (rape; [2]) was 10. For the same compound, the “Rape plant response rating” value (rape; [3]) was 10, the “Plant response rating, Rape” value (rape; [4]) was 0 and the “Plant response rating, Rape” value (rape; [5]) was 2. For the same compound, the “Rape plant response rating” value (rape; [6]) was 8, the “Rape plant response rating” value (rape; [7]) was 8 and the “Rape plant response rating” value (rape; [8]) was 7. The “Plant response rating, Blackgrass” value (blackgrass; [2]) was 9, the “Blackgrass plant response rating” value (blackgrass; [3]) was 9 and the “Plant response rating, Blackgrass” value (blackgrass; [4]) was 6. The “Plant response rating, Blackgrass” value (blackgrass; [5]) was 9, the “Blackgrass plant response rating” value (blackgrass; [6]) was 9 and the “Blackgrass plant response rating” value (blackgrass; [7]) was 10. The “Blackgrass plant response rating” value (blackgrass; [8]) was 8, the “Plant response rating, Soybean” value (soybean; [2]) was 3 and the “Soybean plant response rating” value (soybean; [3]) was 5. The “Plant response rating, Soybean” value (soybean; [4]) was 0, the “Plant response rating, Soybean” value (soybean; [5]) was 0 and the “Soybean plant response rating” value (soybean; [6]) was 2. The “Soybean plant response rating” value (soybean; [7]) was 3, the “Soybean plant response rating” value (soybean; [8]) was 2 and the “Plant response rating, Wheat” value (wheat; [2]) was 3. For the same compound, the “Wheat plant response rating” value (wheat; [3]) was 7, the “Plant response rating, Wheat” value (wheat; [4]) was 0 and the “Plant response rating, Wheat” value (wheat; [5]) was 4. For the same compound, the “Wheat plant response rating” value (wheat; [6]) was 8, the “Wheat plant response rating” value (wheat; [7]) was 9 and the “Wheat plant response rating” value (wheat; [8]) was 0. The “Plant response rating, Corn” value (corn; [1]) was 0, the “Plant response rating, Corn” value (corn; [2]) was 0 and the “Corn plant response rating” value (corn; [3]) was 0. The “Plant response rating, Corn” value (corn; [4]) was 0, the “Plant response rating, Corn” value (corn; [5]) was 3 and the “Corn plant response rating” value (corn; [7]) was 7. The “Corn plant response rating” value (corn; [8]) was 0, the “Plant response rating, B. signalgrass” value (surinam grass; [1]) was 5 and the “Plant response rating, B. signalgrass” value (surinam grass; [2]) was 5. The “B. signalgrass plant response rating” value (surinam grass; [3]) was 8, the “Plant response rating, B. signalgrass” value (surinam grass; [4]) was 1 and the “Plant response rating, B. signalgrass” value (surinam grass; [5]) was 5. The “B. signalgrass plant response rating” value (surinam grass; [6]) was 9, the “B. signalgrass plant response rating” value (surinam grass; [7]) was 10 and the “B. signalgrass plant response rating” value (surinam grass; [8]) was 2. The “Plant response rating, Wild oats” value (wild oat; [2]) was 7, the “Wild oats plant response rating” value (wild oat; [3]) was 9 and the “Plant response rating, Wild oats” value (wild oat; [4]) was 3. For the same compound, the “Plant response rating, Wild oats” value (wild oat; [5]) was 6, the “Wild oats plant response rating” value (wild oat; [6]) was 10 and the “Wild oats plant response rating” value (wild oat; [7]) was 10. The “Wild oats plant response rating” value (wild oat; [8]) was 0, the “Plant response rating, S. Flatsedge (0 to 10 scale, 0 is no effect, 10 is complete control)” value (smallflower flatsedge; [9]) was 0 and the “S. Flatsedge plant response rating (0 to 10 scale, 0 is no effect, 10 is complete control)” value (smallflower flatsedge; [10]) was 0. For the same compound, the “S. Flatsedge plant response rating” value (smallflower flatsedge; [11]) was 0, the “S. Flatsedge plant response rating” value (smallflower flatsedge; [12]) was 7 and the “Plant response rating, Crabgrass” value (crabgrass; [1]) was 7. The “Plant response rating, Crabgrass” value (crabgrass; [2]) was 7, the “Crabgrass plant response rating” value (crabgrass; [3]) was 9 and the “Plant response rating, Crabgrass” value (crabgrass; [4]) was 8. For the same compound, the “Plant response rating, Crabgrass” value (crabgrass; [5]) was 9, the “Crabgrass plant response rating” value (crabgrass; [6]) was 10 and the “Crabgrass plant response rating” value (crabgrass; [7]) was 10. For the same compound, the “Crabgrass plant response rating” value (crabgrass; [8]) was 2, the “Plant response rating, Ducksalad (0 to 10 scale, 0 is no effect, 10 is complete control)” value (duck salad; [9]) was 0 and the “Ducksalad plant response rating (0 to 10 scale, 0 is no effect, 10 is complete control)” value (duck salad; [10]) was 0. For the same compound, the “Ducksalad plant response rating” value (duck salad; [11]) was 0, the “Ducksalad plant response rating” value (duck salad; [12]) was 3 and the “Plant response rating, Sugarbeets” value (sugar beet; [2]) was 5. For the same compound, the “Sugarbeets plant response rating” value (sugar beet; [3]) was 7, the “Plant response rating, Sugarbeets” value (sugar beet; [4]) was 5 and the “Plant response rating, Sugarbeets” value (sugar beet; [5]) was 7. For the same compound, the “Sugarbeets plant response rating” value (sugar beet; [6]) was 8, the “Sugarbeets plant response rating” value (sugar beet; [7]) was 8 and the “Sugarbeets plant response rating” value (sugar beet; [8]) was 0.
